Laboratory results as given in patent US4179516A, “Ethers of 3,4-dihydro-1-benzoxepin-5-one oxime to treat intestinal disorders” (Albert Rolland, S.A., priority 1973, dated 1979).
Like-named read-outs stand apart in the source and are kept apart here.

Tests used:
[1] = according to the authors of Collection Czechoslov. Chem. Common 37 868-886 (1972); cited from earlier work
in vivo = conditions: mouse, male Swiss C.D. mice, acid addition salts
Description: (§1) The tests were carried out on acid addition salts of the amines of the general formula.
The acute toxicity was determined in male Swiss C.D. mice weighing an average of 20 grammes, after oral administration (P.O) and intravenous administration (I.V.).

[2] = test system: smooth intestinal muscle fibre (terminal part of the duodenum); test: In vivo relaxant activity on smooth intestinal muscle in the anaesthetised (chloralosed) dog, balloon in terminal duodenum; conditions: 2 mg/kg intravenously, compared with atropine
Description: as §1
For the in vivo tests: a balloon is introduced into the chloralosed animal at the level of the terminal part of the duodenum and the intestinal movements are recorded on a Beckman polygraph with the acid of Statham PM 97 gauge.

guinea pig ileum = test: Relaxant activity in vitro on isolated organ: anti-acetylcholine (guinea pig ileum); conditions: Tyrode solution, 37° C., acetyl choline
Description: as §1
(§2) For tests on the isolated organ: An organ fragment of rat duodenum or guinea pig ileum is kept alive in 50 ml of oxygenated and thermostatically controlled (37° C.) Tyrode solution. The activity of the compounds is tested on the spontaneous movements of the organ and the contractions produced by the addition of solution of barium chloride or acetyl choline to the bath. The movements were recorded on a DMP 4A Roucaire physiograph.

rat duodenum = test: Relaxant activity in vitro on isolated organ: decontraction (rat duodenum); conditions: Tyrode solution, 37° C.
Description: as §1, §2

[3] = intravenous, read-out: Toxicity in mice LD50 I.V
[4] = oral, read-out: Toxicity in mice LD50 P.O.

Row | SMILES | spasmolytic action [1] | LD50 (in vivo; [3]) [mg/kg] | LD50 (in vivo; [4]) [mg/kg] | effect as regards the reduction in muscle tone and intestinal peristalsis [2] | Minimum active dose concentration, Anti-Acetyl-Cholire (guinea pig ileum) (guinea pig ileum) [µg/mL] | Minimum active dose concentration, Decontraction (rat duodenum) (rat duodenum)
1 | CN(C)CCON=C1CCCOc2cc(Cl)ccc21 | weak spasmolytic action | – | – | – | – | –
2 | CN(C)CCON=C1CCCOc2ccc(Cl)cc21 [Example 1, 7-chloro-3,4-dihydro-1-benzoxepin-O-(dimethylaminoethyl)-5-one oxime] | – | 32 | 150 | comparable with or even superior to that of atropine | 5.5 | 0.06 µg/mL
3 | CCN(CC)CCON=C1CCCOc2ccc(OC)cc21 [Example 10, 7-methoxy-3,4-dihydro-1-benzoxepin-O-(diethylaminoethyl)-5-one oxime] | – | 45 | 450 | – | 0.5 | 0.5 µg/mL
4 | CN(C)CCCON=C1CCCOc2ccc(Cl)cc21 [Example 8, 7-chloro-3,4-dihydro-1-benzoxepin-O-(dimethylaminopropyl)-5-one oxime] | – | 60 | 500 | comparable with or even superior to that of atropine | 3.5 | 0.12 µg/mL
5 | Clc1ccc2c(c1)C(=NOCCN1CCCC1)CCCO2 [Example 7, 7-chloro-3,4-dihydro-1-benzoxepin-O-(1-pyrrolidinyl-ethyl)-5-one oxime] | – | 35 | 450 | comparable with or even superior to that of atropine | 1.3 | 1.5 µg/mL
6 | CCN(CC)CCO/N=C1/CCCOc2ccc(Cl)cc21 [Example 2, 7-chloro-3,4-dihydro-1-benzoxepin-O-(diethylaminoethyl)-5-one oxime: isomer with the cis configuration in relation to the benzene nucleus] | – | 37 | 420 | comparable with or even superior to that of atropine | 1 | 0.1 µg/mL
7 | CN1[C@@H]2CC[C@H]1C[C@@H](OC(=O)C(CO)c1ccccc1)C2 (stereo partly shown) [ATROPINE, reference compound] | – | – | – | – | 0.006 | inactive
8 | CCN(CC)CCON=C1CCCOc2ccc(Br)cc21 [Example 12, 7-bromo-3,4-dihydro-1-benzoxepin-O-(diethylaminoethyl)-5-one oxime] | – | 40 | 250 | comparable with or even superior to that of atropine | 1 | 0.1 µg/mL
9 | COc1ccc2c(c1)C(=NOCCCN(C)C)CCCO2 [Example 11] | – | – | > 1000 | – | 2.0 | 0.3 µg/mL
10 | Clc1ccc2c(c1)C(=NOCCN1CCOCC1)CCCO2 [Example 6, 7-chloro-3,4-dihydro-1-benzoxepin-O-(morpholinoethyl)-5-one oxime] | – | 120 | > 1000 | – | 5.5 | 0.15 µg/mL
11 | COc1ccc2c(c1)C(=NOCCN(C)C)CCCO2 [Example 9, 7-methoxy-3,4-dihydro-1-benzoxepin-O-(dimethylaminoethyl)-5-one oxime] | – | 35 | 500 | – | 1.5 | 0.12 µg/mL
